Drawing on BindingDB's records for doi:10.1016/j.bmcl.2009.10.094 (Amgen, 2009), this text covers EC50 for 1 compound.

A short description of this experiment: Antagonist activity at human CRTH2 receptor expressed in CEM cell assessed as inhibition of PGD2-induced cell migration after 3 hrs by transwell migration assay.

In general, EC50 refers to the concentration that produces a half-maximal response.

SMILES strings stand for the structures.

With `CC(=O)N(c1ccccc1)[C@@H]1C[C@H](C)N(C(=O)c2ccccc2)c2ccccc21` (racemic) [(+/-)-cis-N-(1-benzoyl-2-methyl-1,2,3,4-tetrahydroquinolin-4-yl)-N-phenylacetamide], the EC50 worked out at 11 nM.
